# Legend:
# [1] = Evaluation for the inhibition of delta opioid binding to bovine striatal membranes by the affinity ligand 0.2 nM [3H]p-Cl-DPDPE
# [2] = Evaluation for the inhibition of kappa opioid binding to bovine striatal membranes by the affinity ligand 1 nM [3H]U-69593
compound,measurement,setting,value
"CN1CC[C@]23c4c5ccc(O)c4O[C@H]2C(=O)CC[C@@]3(NC(=O)CS)C1C5 [1N-[10-hydroxy-4-methyl-14-oxo-12-oxa-4-azapentacyclo[9.6.1.01,13.05,17.07,18]octadeca-7,9,11(18)-trien-17-yl]-2-sulfanylacetamide]",IC50,[1],12 nM
same,IC50,[2],41 nM

# — BindingDB's records for doi:10.1021/jm00037a008 (Institute, 1994)
